Measured values as given in patent publication US20060252766A1, “Methods using a combination of 3-heteroaryl-2-indolinone and a cyclooxygenase-2 inhibitor for the treatment of neoplasia” (PFIZER INC, priority 2002, published 2006).
pIC50: −log10 of the molar value. “And” between values parts separate entries of the source, which are not always exact repeats. Equal entries are not always repeated. Where two headings read alike, the source gives them in different places.

Tests used:
[1] = tested on: PDGFR; experiment: PDGF-induced BrdU incorporation assay in 3T3/EGFR cells; assay type: cell-based; details: Mitogenesis in 3T3/EGFR cells, read-out: PDGFR PDGF Ligand IC50
Method: Protocol • (1) 3T3 engineered cell line: 3T3/EGFRc7. • (2) Cells are seeded at 8000 cells/well in DMEM, 10% CS, 2 mM Gin in a 96 well plate. […] The negative control wells receive serum free DMEM with 0.1% BSA only; the positive control cells receive the ligand (PDGF) but no test compound. […] FixDenat solution is added (50 μl/well) and the plates are incubated at room temperature for 45 minutes on a plate shaker. • (7) The FixDenat solution is thoroughly removed by decanting and tapping the inverted plate on a paper towel. Milk is added (5% dehydrated milk in PBS, 200 μl/well) as a blocking solution and the plate is incubated for 30 minutes at room temperature on a plate shaker. • (8) The blocking solution is removed by decanting and the wells are washed once with PBS. Anti-BrdU-POD solution (1:100 dilution in PBS, 1% BSA) is added (100 μl/well) and the plate is incubated for 90 minutes at room temperature on a plate shaker. • (9) The antibody conjugate is thoroughly removed by decanting and rinsing the wells 5 times with PBS, and the plate is dried by inverting and tapping on a paper towel. • (10) TMB substrate solution is added (100 μl/well) and incubated for 20 minutes at room temperature on a plate shaker until color development is sufficient for photometric detection. • (11) The absorbance of the samples is measured at 410 nm (in “dual wavelength” mode with a filter reading at 490 nm, as a reference wavelength) on a Dynatech ELISA plate reader.

[2] = biological target: FGFR (Mus musculus, UniProt P16092); experiment: FGF ligand BrdU incorporation in 3T3/EGFR cells; assay type: cell-based; details: Mitogenesis in 3T3/EGFR cells
[3] = biological target: PDGFR (Homo sapiens, UniProt P09619); experiment: PDGF-R ELISA
Method: All cell culture media, glutamine, and fetal bovine serum were purchased from Gibco Life Technologies (Grand Island, N.Y.) unless otherwise specified. […] All cell lines were routinely subcultured twice a week and were negative for mycoplasma as determined by the Mycotect method (Gibco).
For ELISA assays, cells (U1242, obtained from Joseph Schlessinger, NYU) were grown to 80-90% confluency in growth medium (MEM with 10% FBS, NEAA, 1 mM NaPyr and 2 mM GLN) and seeded in 96-well tissue culture plates in 0.5% serum at 25,000 to 30,000 cells per well. […] Lysates were incubated with shaking for 1 hour at room temperature. The plates were washed with TBST four times and then incubated with polyclonal anti-phosphotyrosine antibody at room temperature for 30 minutes. Excess anti-phosphotyrosine antibody was removed by rinsing the plate with TBST four times. Goat anti-rabbit IgG antibody was added to the ELISA plate for 30 min at room temperature followed by rinsing with TBST four more times. […] Absorbance at 410 nm with a reference wavelength of 630 nm was recorded about 15 to 30 min after ABTS addition.

[4] = tested on: 1483 human head and neck squamous cell carcinoma (HNSCC) xenograft; experiment: HN1483 tumor model: paw tumor volume of treated mice; assay type: in vivo, nude mice; details: for Tumor vol. Average: group average; for Paw volume, paw / Tumor vol.: individual mice
[5] = SU-5416/50 mgkd, Day 17 Mar. 16, 2001
[6] = SU-5416/50 mgkd, Day 21 Mar. 20, 2001
[7] = SU-5416/50 mgkd, Day 24 Mar. 23, 2001
[8] = SU-5416/50 mgkd, Day 31 Apr. 2, 2001
[9] = SU-5416/50 mgkd, Day 31 Mar. 30, 2001

Chain of FGFR (P16092 22-822, change not shown): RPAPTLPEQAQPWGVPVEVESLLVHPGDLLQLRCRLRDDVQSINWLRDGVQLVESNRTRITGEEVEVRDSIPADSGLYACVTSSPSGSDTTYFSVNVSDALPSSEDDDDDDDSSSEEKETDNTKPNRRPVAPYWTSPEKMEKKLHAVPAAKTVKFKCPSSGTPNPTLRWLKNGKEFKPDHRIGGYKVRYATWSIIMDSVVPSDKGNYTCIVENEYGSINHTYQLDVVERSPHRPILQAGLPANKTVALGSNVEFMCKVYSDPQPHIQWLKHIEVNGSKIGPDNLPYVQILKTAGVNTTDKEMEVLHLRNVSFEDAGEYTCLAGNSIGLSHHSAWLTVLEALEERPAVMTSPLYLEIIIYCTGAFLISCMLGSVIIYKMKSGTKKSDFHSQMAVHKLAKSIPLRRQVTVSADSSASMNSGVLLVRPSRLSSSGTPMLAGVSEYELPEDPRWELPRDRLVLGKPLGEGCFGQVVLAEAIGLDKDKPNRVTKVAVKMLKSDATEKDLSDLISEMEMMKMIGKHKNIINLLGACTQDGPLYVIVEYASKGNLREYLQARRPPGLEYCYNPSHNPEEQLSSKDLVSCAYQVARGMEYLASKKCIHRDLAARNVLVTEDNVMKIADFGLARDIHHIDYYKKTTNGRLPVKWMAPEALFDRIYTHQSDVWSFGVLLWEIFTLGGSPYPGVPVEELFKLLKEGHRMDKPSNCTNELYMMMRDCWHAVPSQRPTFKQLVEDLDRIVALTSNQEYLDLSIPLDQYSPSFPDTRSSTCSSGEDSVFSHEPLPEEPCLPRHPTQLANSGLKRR
Chain of PDGFR (Homo sapiens, UniProt P09619) (P09619 33-1106): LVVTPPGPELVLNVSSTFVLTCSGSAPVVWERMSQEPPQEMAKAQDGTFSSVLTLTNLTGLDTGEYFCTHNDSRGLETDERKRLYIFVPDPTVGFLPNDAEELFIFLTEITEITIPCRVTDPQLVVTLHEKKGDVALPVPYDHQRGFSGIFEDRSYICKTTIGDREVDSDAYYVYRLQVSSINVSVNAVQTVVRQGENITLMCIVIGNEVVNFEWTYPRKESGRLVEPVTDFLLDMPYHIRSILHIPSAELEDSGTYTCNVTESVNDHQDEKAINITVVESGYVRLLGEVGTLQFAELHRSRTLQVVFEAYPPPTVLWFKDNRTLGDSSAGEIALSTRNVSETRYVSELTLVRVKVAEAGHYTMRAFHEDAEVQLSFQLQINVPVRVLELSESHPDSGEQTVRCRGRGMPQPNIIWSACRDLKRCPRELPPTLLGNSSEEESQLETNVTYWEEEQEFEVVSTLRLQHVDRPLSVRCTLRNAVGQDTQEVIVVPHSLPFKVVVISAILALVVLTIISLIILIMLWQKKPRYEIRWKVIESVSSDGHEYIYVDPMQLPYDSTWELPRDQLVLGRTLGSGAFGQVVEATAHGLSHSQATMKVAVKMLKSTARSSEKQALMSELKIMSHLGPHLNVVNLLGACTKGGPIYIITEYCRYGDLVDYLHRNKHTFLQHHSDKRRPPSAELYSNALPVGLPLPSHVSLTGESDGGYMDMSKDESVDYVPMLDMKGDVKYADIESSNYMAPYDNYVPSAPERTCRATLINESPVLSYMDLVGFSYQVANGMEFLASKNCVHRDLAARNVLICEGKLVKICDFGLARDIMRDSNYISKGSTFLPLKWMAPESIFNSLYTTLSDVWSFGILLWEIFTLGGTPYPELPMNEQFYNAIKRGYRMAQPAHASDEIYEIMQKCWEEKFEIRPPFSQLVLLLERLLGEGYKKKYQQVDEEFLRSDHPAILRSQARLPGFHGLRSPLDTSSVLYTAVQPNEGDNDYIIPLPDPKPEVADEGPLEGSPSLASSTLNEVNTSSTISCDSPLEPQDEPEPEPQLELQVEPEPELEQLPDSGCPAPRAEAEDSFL

O=C1Nc2ccccc2C1=Cc1ccc(N2CCOCC2)cc1 [SU4981, 3-[4-(Morpholin-4-yl)benzylidenyl]-2-indolinone]
pIC50 [1]: 5.52
pIC50 [2]: 5.00
pIC50 [3]: 4.48

O=C1Nc2ccccc2C1=Cc1c(Br)cnn1Cc1ccc(Cl)cc1 [SU5475, 3-[(4-Bromo-1-(4-chlorobenzyl)pyrazol-5-yl)methylene]-2-indolinone]
pIC50 [1]: 5.19
pIC50 [2]: 5.05

Cc1c(CCC(=O)O)c[nH]c1C=C1C(=O)Nc2ccccc21 [SU5402, 3-[(3-(2-carboxyethyl)-4-methylpyrrol-5-yl)methylene]-2-indolinone]
pIC50 [1]: 4.30
pIC50 [2]: 4.40

Cc1cnc(C=C2C(=O)Nc3ccccc32)[nH]1 [SU5468, 3-[(5-Methylimidazol-2-yl)methylene]-2-indolinone]
pIC50 [1]: 5.10
pIC50 [3]: 4.25

CN(C)c1ccc(C=C2C(=O)Nc3ccc(Cl)cc32)cc1 [SU4967, 5-Chloro-3-(4-dimethylaminobenzylidenyl)-2-indolinone]
pIC50 [1]: 5.05
pIC50 [2]: 5.31
pIC50 [3]: 5.10

CCc1ccc(C=C2C(=O)Nc3ccccc32)s1 [SU5451, 3-[(2-Ethylthien-5-yl)methylene]-2-indolinone]
pIC50 [1]: 4.52
pIC50 [2]: 4.80

CCOC(=O)CCc1c(C=C2C(=O)Nc3ccccc32)[nH]c(C(=O)OCC)c1CC(=O)OCC [SU5465, 3-[(5-Ethoxycarbonyl-3-ethoxycarbonylethyl-4-ethoxylcarbonylmethylpyrrol-2-yl)methylene]-2-indolinone]
pIC50 [1]: 4.40
pIC50 [2]: 4.60

Cc1cnc(C=C2C(=O)Nc3ccccc32)s1 [SU5469, 3-[(5-Methylthiazol-2-yl)methylene]-2-indolinone]
pIC50 [1]: 5.40
pIC50 [2]: 4.82

COC(=O)CCc1c(C)c[nH]c1C=C1C(=O)Nc2ccccc21 [SU5407, 3-{[4-(2-methoxycarbonylethyl)-3-methylpyrrol-5-yl]methylene}-2-indolinone]
pIC50 [3]: 4.27

CCc1c(C=C2C(=O)Nc3ccccc32)[nH]c(C)c1C [SU5453, 3-[(4,5-Dimethyl-3-ethylpyrrol-2-yl)methylene]-2-indolinone]
pIC50 [3]: 4.18

Cc1cc(C)c(C=C2C(=O)Nc3ccccc32)[nH]1 [SU5416, 3-[(2,4-Dimethylpyrrol-5-yl)methylene]-2-indolinone]
Tumor vol. Average ([4]; SU5416 25 mg/kg/day s.c. group, Day 7 Mar. 3, 2001 (before start of dosing)): 0.14
Paw volume, paw ([4]; SU5416 25 mg/kg/day s.c. group, Day 7 Mar. 3, 2001 (before start of dosing), 25 mg/kg/day): 0.26 (3×) and 0.28 and 0.27 (2×) and 0.24 and 0.23
Tumor vol. ([4]; SU5416 25 mg/kg/day s.c. group, Day 7 Mar. 3, 2001 (before start of dosing), paw minus 0.10, 25 mg/kg/day): 0.16 (2×) and 0.17 (3×) and 0.18 and 0.14 and 0.13
Tumor vol. Average ([4]; SU5416 25 mg/kg/day s.c., Day 14 Mar. 13, 2001): 0.18
Paw volume, paw ([4]; SU5416 25 mg/kg/day s.c., Day 14 Mar. 13, 2001, 25 mg/kg/day): 0.29 (3×) and 0.28 (2×) and 0.27 and 0.26 and 0.24
Tumor vol. ([4]; SU5416 25 mg/kg/day s.c., Day 14 Mar. 13, 2001, paw minus BKG. 0.10, 25 mg/kg/day): 0.19 (3×) and 0.18 and 0.17 and 0.16 (2×) and 0.14
Tumor vol. Average ([4]; SU5416 25 mg/kg/day s.c., Day 17 Mar. 16, 2001): 0.21
Paw volume, paw ([4]; SU5416 25 mg/kg/day s.c., Day 17 Mar. 16, 2001, 25 mg/kg/day): 0.37 (2×) and 0.33 and 0.29 and 0.28 (2×) and 0.36 and 0.23
Tumor vol. ([4]; SU5416 25 mg/kg/day s.c., Day 17 Mar. 16, 2001, paw minus BKG. 0.10, 25 mg/kg/day): 0.27 (2×) and 0.23 and 0.19 and 0.18 (2×) and 0.26 and 0.13
Tumor vol. Average ([4]; SU5416 25 mg/kg/day s.c., Day 21 Mar. 20, 2001): 0.34
Paw volume, paw ([4]; SU5416 25 mg/kg/day s.c., Day 21 Mar. 20, 2001, 25 mg/kg/day): 0.55 and 0.49 and 0.37 and 0.34 and 0.4 and 0.58 and 0.56 and 0.24
Tumor vol. ([4]; SU5416 25 mg/kg/day s.c., Day 21 Mar. 20, 2001, paw minus BKG. 0.10, 25 mg/kg/day): 0.45 and 0.39 and 0.27 and 0.24 and 0.30 and 0.48 and 0.46 and 0.14
Tumor vol. Average ([4]; SU5416 25 mg/kg/day s.c., Day 24 Mar. 23, 2001): 0.39
Paw volume, paw ([4]; SU5416 25 mg/kg/day s.c., Day 24 Mar. 23, 2001, 25 mg/kg/day): 0.59 and 0.8 and 0.37 and 0.4 and 0.49 and 0.65 and 0.61 and 0.22
Tumor vol. ([4]; SU5416 25 mg/kg/day s.c., Day 24 Mar. 23, 2001, paw minus BKG. 0.10, 25 mg/kg/day): 0.49 and 0.50 and 0.27 and 0.30 (2×) and 0.55 and 0.51 and 0.12
Tumor vol. Average ([4]; SU5416 25 mg/kg/day s.c., Day 31 Apr. 2, 2001): 0.87
Paw volume, paw ([4]; SU5416 25 mg/kg/day s.c., Day 31 Apr. 2, 2001, 25 mg/kg/day): 0.82 and 0.79 and 0.57 and 0.6 and 0.66 and 0.98 and 0.75 and 0.21
Tumor vol. ([4]; SU5416 25 mg/kg/day s.c., Day 31 Apr. 2, 2001, paw minus BKG. 0.10, 25 mg/kg/day): 0.72 and 0.69 and 0.47 and 0.50 and 0.56 and 0.68 and 0.65 and 0.11
Tumor vol. Average ([4]; SU5416 25 mg/kg/day s.c., Day 31 Mar. 30, 2001): 0.56
Paw volume, paw ([4]; SU5416 25 mg/kg/day s.c., Day 31 Mar. 30, 2001, 25 mg/kg/day): 0.84 and 0.5 and 0.71 and 0.23 and 0.73 and 0.81 and 0.54 and 0.56
Tumor vol. ([4]; SU5416 25 mg/kg/day s.c., Day 31 Mar. 30, 2001, paw minus BKG. 0.10, 25 mg/kg/day): 0.74 and 0.70 and 0.61 and 0.13 and 0.63 and 0.71 and 0.44 and 0.46
Tumor vol. Average ([4]; SU5416 25 mg/kg/day s.c., Start dosing Day 10 Mar. 9, 2001): 0.16
Paw volume, paw ([4]; SU5416 25 mg/kg/day s.c., Start dosing Day 10 Mar. 9, 2001, 25 mg/kg/day): 0.3 and 0.25 and 0.23 and 0.26 and 0.27 and 0.29 and 0.24 (2×)
Tumor vol. ([4]; SU5416 25 mg/kg/day s.c., Start dosing Day 10 Mar. 9, 2001, paw minus BKG. 0.10, 25 mg/kg/day): 0.20 and 0.15 and 0.13 and 0.10 and 0.17 and 0.19 and 0.14 (2×)
Paw volume, paw ([4]; SU-5416/50 mgkd, Day 14 Mar. 13, 2001): 0.29 and 0.22 and 0.32 and 0.27 (2×) and 0.24 and 0.26 and 0.21
Tumor vol. Average [4, 5]: 0.19
Paw volume, paw [4, 5]: 0.24 and 0.27 and 0.2 and 0.3 and 0.32 and 0.22 and 0.39 and 0.34
Tumor vol. ([4]; SU-5416/50 mgkd, Day 17 Mar. 16, 2001, paw minus BKG. 0.10): 0.14 and 0.17 and 0.10 and 0.20 and 0.22 and 0.12 and 0.29 and 0.24
Tumor vol. Average [4, 6]: 0.27
Paw volume, paw [4, 6]: 0.27 and 0.36 and 0.19 and 0.31 and 0.44 and 0.22 and 0.63 and 0.48
Tumor vol. ([4]; SU-5416/50 mgkd, Day 21 Mar. 20, 2001, paw minus BKG. 0.10): 0.17 and 0.28 and 0.09 and 0.21 and 0.34 and 0.12 and 0.53 and 0.38
Tumor vol. Average [4, 7]: 0.30
Paw volume, paw [4, 7]: 0.25 and 0.46 and 0.19 and 0.28
Tumor vol. ([4]; SU-5416/50 mgkd, Day 24 Mar. 23, 2001, paw minus BKG. 0.10): 0.15 and 0.36 and 0.09 and 0.18 and 0.42 and 0.08 and 0.64
Tumor vol. Average [4, 8]: 0.34
Paw volume, paw [4, 8]: 0.18 and 0.53 and 0.15 and 0.25
Tumor vol. ([4]; SU-5416/50 mgkd, Day 31 Apr. 2, 2001, paw minus BKG. 0.10): 0.08 (2×) and 0.43 and 0.05 and 0.15 and 0.59
Tumor vol. Average [4, 9]: 0.36
Paw volume, paw [4, 9]: 0.24 and 0.6 and 0.18 and 0.21
Tumor vol. ([4]; SU-5416/50 mgkd, Day 31 Mar. 30, 2001, paw minus BKG. 0.10): 0.14 (2×) and 0.50 and 0.08 and 0.11 and 0.73 and 0.62
body wt, individual mouse (group 2, SU5416 25 mg/kg/day s.c., Day 0 (day of injection), 25 mg/kg/day): 31.93
body wt, individual mouse (group 2, SU5416 25 mg/kg/day s.c., Day 7, 25 mg/kg/day): 32.41 and 25.96
body wt, individual mouse (group 2, SU5416 25 mg/kg/day s.c., Day 10, 25 mg/kg/day): 32.36 and 25.96 and 31
body wt, individual mouse (group 2, SU5416 25 mg/kg/day s.c., Day 14, 25 mg/kg/day): 28.02 and 32.11 and 23.91 and 21.18
body wt, individual mouse (group 2, SU5416 25 mg/kg/day s.c., Day 17, 25 mg/kg/day): 28.98 and 18.97
body wt, individual mouse (group 2, SU5416 25 mg/kg/day s.c., Day 21, 25 mg/kg/day): 22.29 and 18.32
body wt, individual mouse (group 2, SU5416 25 mg/kg/day s.c., Day 24, 25 mg/kg/day): 24.83 and 21.3 and 22.29 and 22.93 and 18.15 and 29.02
body wt, individual mouse (group 2, SU5416 25 mg/kg/day s.c., Day 31, 25 mg/kg/day): 23.86 and 17.88 and 20.51
body wt, individual mouse (group 2, SU5416 25 mg/kg/day s.c., Day 35, 25 mg/kg/day): 21.74 and 22.95 and 18.42
body wt, individual mouse (group 5, SU-5416 50 mpkd, Day 0 (day of injection)): 26.04
body wt, individual mouse (group 5, SU-5416 50 mpkd, Day 7): 29.04
body wt, individual mouse (group 5, SU-5416 50 mpkd, Day 21): 25.96 and 24.96
body wt, individual mouse (group 5, SU-5416 50 mpkd, Day 24): 22.85 and 24.01 and 24.79
body wt, individual mouse (group 5, SU-5416 50 mpkd, Day 31): 26.03

Cc1c[nH]c(C=C2C(=O)Nc3ccccc32)c1C [SU5406, 3-[(3,4-Dimethylpyrrol-2-yl)methylene]-2-indolinone]
pIC50 [1]: 5.28
